Where “and” joins values, the source holds several entries; their conditions need not be identical. Equal entries are not always repeated.

What all share (format): cell-based
The test system of one assay is KYSE-30 cells. Kind of assay: MTT assay for cell proliferation, KYSE-30. Set-up: key to Inhibitory rate: inhibition rate = 1 - mean A490 sample/mean A490 control (fraction). Particulars: for Inhibitory rate: KYSE-30, given as fraction; for Inhibition rate (16μM), 48 h, KYSE-30: preliminary screening, KYSE-30, 16 μM, mean±SD, unit not given. As for the experimental part:
(§1) HepG2, HeLa, MCF-7, and KYSE-30 cells were grown in a humidified incubator at 37°C with 5% CO2 in DMEM supplemented with 10% fetal bovine serum (FBS), […] streptomycin, and 100 U/mL penicillin.
(§2) When HepG2 cells reached 80% confluence, they were treated with 1 mL of trypsin and resuspended at a density of 10^5 cells/mL. Then, 100 μL of cell suspension was seeded into each well of a 96-well plate and incubated in a humidified atmosphere. The different concentrations of KJ-5 and KJ-12 (0, 1, 2, 4, 8, 16, and 32 μM) were added to each well, and the cells were further incubated for 48 h. Afterward, 20 μL of the MTT solution (5 mg/mL) was added to each well, and incubation was continued for another 4 h. The supernatant was discarded, and 200 μL of the DMSO solution was added to each well. The plate was shaken for 10 min in the dark. The absorbance values were measured at 490 nm using an enzyme-linked detector. The cell inhibition rate (%) was calculated using the following formula: (1-Mean A490 sample/Mean A490 control) × 100%.
On the technique in general: Tetrazolium assays rely on reduction of a dye to a coloured formazan, in cell work by metabolically active cells.

The test system of a further assay is HeLa cells. The assay is described as follows: MTT assay for cell proliferation, HeLa. Also on record: key to Inhibitory rate: inhibition rate = 1 - mean A490 sample/mean A490 control (fraction). Particulars: Hela; for Inhibitory rate / ODtreated/ODcontrol: fraction, per experiment; for Inhibition rate (16μM), 48 h, Hela: preliminary screening, mean±SD, unit not given. As for the experimental part:
as §1, §2

The subject of the next assay is HepG2 cells. Kind of assay: MTT assay for cell proliferation and cytotoxicity, HepG2. Set-up: key to Inhibitory rate: inhibition rate = 1 - mean A490 sample/mean A490 control (fraction). To be noted: for IC50: HepG2, 48 h, MTT; for Inhibitory rate / ODtreated/ODcontrol: HepG2, fraction, per experiment; for Inhibition rate (16μM), 48 h, HepG2: preliminary screening, HepG2, 16 μM, mean±SD, unit not given. Here is the method: as §1, §2

A further assay relates to MCF-7 cells. The assay is described as follows: MTT assay for cell proliferation, MCF-7. Also on record: key to Inhibitory rate / Inhibition rate: inhibition rate = 1 - mean A490 sample/mean A490 control (fraction). To be noted: for Inhibition rate (16μM), 48 h, MCF-7: preliminary screening, MCF-7, 16 μM, mean±SD, unit not given. Here is the method: as §1, §2
Setting [1] is: KYSE-30, first of three experiments.
Where [2] appears, read: KYSE-30, second of three experiments.
Setting [3] is: KYSE-30, third of three experiments.
Where [4] appears, read: MCF-7, fraction, per experiment.
[5] abbreviates: given as fraction, second of three experiments.
Setting [6] is: given as fraction, third of three experiments.

Turning to `COc1c2n(cc(C(=O)Nc3cccc(-c4cn(-c5ccccc5F)nn4)c3)c1=O)C[C@H]1OC[C@H](C)N1C2=O` [KJ-2], the ODtreated/ODcontrol with KYSE-30 cells (setting [1]) was 0.5011; in the assay with KYSE-30 cells (setting [2]) it was 0.5418; with KYSE-30 cells (setting [3]), 0.6283; in the assay on HeLa cells it was 0.503 and 0.4884 and 0.569; with HepG2 cells, 0.487 and 0.4907 and 0.4913; in the assay on MCF-7 cells (setting [4]) it was 0.4991. The ODtreated/ODcontrol turned out to be 0.5282 in the assay with MCF-7 cells (second of three experiments) and 0.5499 in the assay on MCF-7 cells (third of three experiments). In addition, the Inhibitory rate in the assay with KYSE-30 cells (first of three experiments) is 0.4989; in the assay with KYSE-30 cells (second of three experiments), 0.4582; in the assay with KYSE-30 cells (third of three experiments), 0.3717; with HeLa cells, 0.497 and 0.5116 and 0.431; in the assay with HepG2 cells it was 0.513 and 0.5093 and 0.5087; with MCF-7 cells (setting [4]) it was 0.5009. The compound further gave an Inhibitory rate with MCF-7 cells (setting [5]) of 0.4718. In addition, the “Inhibition rate (16μM), 48 h, KYSE-30” value with KYSE-30 cells is listed as 44.92±6.50. Besides, the “Inhibition rate (16μM), 48 h, Hela” value with HeLa cells was 47.99±4.29. In the assay on HepG2 cells, this compound yielded an IC50 of 25.3 ± 2.07 µM. The “Inhibition rate (16μM), 48 h, HepG2” value with HepG2 cells came out at 51.03±0.23. Moreover, the Inhibition rate with MCF-7 cells (setting [6]) came to 0.4501. In addition, the “Inhibition rate (16μM), 48 h, MCF-7” value in the assay on MCF-7 cells worked out at 47.43±2.55.

In the case of `COc1c2n(cc(C(=O)Nc3cccc(-c4cn(-c5ccccc5C(F)(F)F)nn4)c3)c1=O)C[C@H]1OC[C@H](C)N1C2=O` [KJ-1], the ODtreated/ODcontrol with KYSE-30 cells (setting [1]) is 0.5729; with KYSE-30 cells (setting [2]) it was 0.6354; in the assay on KYSE-30 cells (setting [3]), 0.6125; in the assay with HeLa cells, 0.544 and 0.5211 and 0.6586; in the assay on HepG2 cells, 0.52 and 0.5093 and 0.5658; with MCF-7 cells (setting [4]) it was 0.5391. In addition, the ODtreated/ODcontrol in the assay with MCF-7 cells (second of three experiments) stood at 0.5071; in the assay on MCF-7 cells (third of three experiments), 0.6227. The Inhibitory rate is 0.4271 in the assay on KYSE-30 cells (first of three experiments); 0.3646 with KYSE-30 cells (second of three experiments); 0.3875 in the assay on KYSE-30 cells (third of three experiments); 0.456 and 0.4789 and 0.3414 in the assay with HeLa cells; 0.48 and 0.4907 and 0.4342 with HepG2 cells; 0.4609 with MCF-7 cells (setting [4]). Moreover, the Inhibitory rate with MCF-7 cells (setting [5]) was 0.4929. In the assay with KYSE-30 cells, the “Inhibition rate (16μM), 48 h, KYSE-30” value was 39.31±3.16. For the same compound, the “Inhibition rate (16μM), 48 h, Hela” value in the assay with HeLa cells came to 44.98±3.26. Besides, in the assay on HepG2 cells, the IC50 came out at 13.6 ± 1.09 µM. The “Inhibition rate (16μM), 48 h, HepG2” value with HepG2 cells is given as 46.83±3.00. Also, in the assay with MCF-7 cells (setting [6]), the Inhibition rate came to 0.3773. In the assay on MCF-7 cells, the “Inhibition rate (16μM), 48 h, MCF-7” value was 44.37±5.97.

`COc1c2n(cc(C(=O)Nc3cccc(-c4cn(-c5cc(C(F)(F)F)ccc5C(F)(F)F)nn4)c3)c1=O)CC1OCC(C)N1C2=O` (stereo not drawn) [KJ-11]: the ODtreated/ODcontrol in the assay with KYSE-30 cells (setting [1]) is 0.7351; in the assay with KYSE-30 cells (setting [2]), 0.775; in the assay with KYSE-30 cells (setting [3]), 0.7863; in the assay on HeLa cells it was 0.7509 and 0.7816 and 0.7982; with HepG2 cells, 0.7364 and 0.7529 and 0.7709; with MCF-7 cells (setting [4]), 0.8542. Besides, the ODtreated/ODcontrol in the assay with MCF-7 cells (second of three experiments) was 0.807; in the assay with MCF-7 cells (third of three experiments) it was 0.7984. The Inhibitory rate with KYSE-30 cells (first of three experiments) was 0.2649; with KYSE-30 cells (second of three experiments), 0.225; in the assay with KYSE-30 cells (third of three experiments), 0.2137; with HeLa cells, 0.2491 and 0.2184 and 0.2018; with HepG2 cells, 0.2636 and 0.2471 and 0.2291; in the assay with MCF-7 cells (setting [4]), 0.1458. Also, the Inhibitory rate with MCF-7 cells (setting [5]) came out at 0.193. Also, in the assay with KYSE-30 cells, the “Inhibition rate (16μM), 48 h, KYSE-30” value worked out at 23.45±2.69. In addition, in the assay on HeLa cells, the “Inhibition rate (16μM), 48 h, Hela” value stood at 22.31±2.4. Moreover, the IC50 with HepG2 cells was > 50 µM. The “Inhibition rate (16μM), 48 h, HepG2” value in the assay with HepG2 cells is 24.66±1.73. The compound further showed an Inhibition rate in the assay on MCF-7 cells (setting [6]) of 0.2016. For the same compound, the “Inhibition rate (16μM), 48 h, MCF-7” value in the assay on MCF-7 cells was 18.01±3.00.

The term IC50 denotes the concentration that gives 50% inhibition.

Source of the values: PMC10590056, “Design and synthesis of cabotegravir derivatives bearing 1,2,3-triazole and evaluation of anti-liver cancer activity” (Frontiers in Pharmacology, 2023).
